ChEMBL document CHEMBL1201861, “Genomics of Drug Sensitity in Cancer screening data, Wellcome Trust Sanger Institute”
pIC50: −log10 of the molar value.

Experiments:
Assay in all cases: cells
NB12 = assay type: functional, cell-based, Homo sapiens; conditions: Homo sapiens, NB12;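 further: growth inhibition of human NB12 cells, read out by a cell viability assay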
Description: SANGER: Inhibition of human NB12 cell growth in a cell viability assay.

NCI-H1648 = assay type: functional, cell-based, Homo sapiens; conditions: Homo sapiens, NCI-H1648;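 further: cell viability assay measuring inhibition of NCI-H1648 cell growth, from the Sanger screening data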
Description: SANGER: Inhibition of human NCI-H1648 cell growth in a cell viability assay.

KYSE-410 = assay type: functional, cell-based, Homo sapiens; conditions: Homo sapiens, KYSE-410;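 further: growth inhibition of KYSE-410 cells, measured through a cell viability readout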
Description: SANGER: Inhibition of human KYSE-410 cell growth in a cell viability assay.

SH-4 = assay type: functional, cell-based, Homo sapiens; conditions: Homo sapiens, SH-4;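 further: growth inhibition of SH-4 cells, read out with a cell viability assay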
Description: SANGER: Inhibition of human SH-4 cell growth in a cell viability assay.

ACN = assay type: functional, cell-based, Homo sapiens; conditions: Homo sapiens, ACN;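 further: growth inhibition of the human ACN cell line, read out via cell viability testing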
Description: SANGER: Inhibition of human ACN cell growth in a cell viability assay.

A2780 = assay type: functional, cell-based, Homo sapiens; conditions: Homo sapiens, A2780;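 further: growth inhibition of A2780 cells, read out with a cell viability assay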
Description: SANGER: Inhibition of human A2780 cell growth in a cell viability assay.

HCE-4 = assay type: functional, cell-based, Homo sapiens; conditions: Homo sapiens, HCE-4;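 further: cell viability assay measuring inhibition of growth in the human HCE-4 cell line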
Description: SANGER: Inhibition of human HCE-4 cell growth in a cell viability assay.

ChaGo-K-1 = assay type: functional, cell-based; conditions: Homo sapiens;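 further: growth inhibition of ChaGo-K-1 cells, read out with a cell viability assay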
Description: SANGER: Inhibition of human ChaGo-K-1 cell growth in a cell viability assay.

MV4-11 = assay type: functional, cell-based, MV-4-11; conditions: Homo sapiens;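 further: cell viability readout measuring growth inhibition of human MV-4-11 cells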
Description: SANGER: Inhibition of human MV-4-11 cell growth in a cell viability assay.

GCT = assay type: functional, cell-based, Homo sapiens; conditions: Homo sapiens, GCT;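 further: GCT cell line proliferation inhibition, read out with a cell viability assay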
Description: SANGER: Inhibition of human GCT cell growth in a cell viability assay.

DBTRG-05MG = assay type: functional, cell-based, Homo sapiens; conditions: Homo sapiens, DBTRG-05MG;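 further: cell viability assay measuring growth inhibition of human DBTRG-05MG cells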
Description: SANGER: Inhibition of human DBTRG-05MG cell growth in a cell viability assay.

J82 = assay type: functional, cell-based; conditions: Homo sapiens;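 further: growth inhibition of J82 cells, read out with a cell viability assay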
Description: SANGER: Inhibition of human J82 cell growth in a cell viability assay.

LB2241-RCC = assay type: functional, cell-based, Homo sapiens; conditions: Homo sapiens, LB2241-RCC;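 further: cell viability assay measuring how strongly the cultured human renal carcinoma line is prevented from growing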
Description: SANGER: Inhibition of human LB2241-RCC cell growth in a cell viability assay.

NCI-H1770 = assay type: functional, cell-based; conditions: Homo sapiens;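 further: growth inhibition of NCI-H1770 cells determined with a viability readout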
Description: SANGER: Inhibition of human NCI-H1770 cell growth in a cell viability assay.

MMAC-SF = assay type: functional, cell-based, Homo sapiens; conditions: Homo sapiens, MMAC-SF;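 further: growth inhibition of human MMAC-SF cells, read out with a cell viability assay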
Description: SANGER: Inhibition of human MMAC-SF cell growth in a cell viability assay.

P30-OHK = assay type: functional, cell-based; conditions: Homo sapiens;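 further: growth inhibition of the P30-OHK cell line, read out with a cell viability assay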
Description: SANGER: Inhibition of human P30-OHK cell growth in a cell viability assay.

DJM-1 = assay type: functional, cell-based, Homo sapiens; conditions: Homo sapiens, DJM-1;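 further: growth inhibition of human DJM-1 cells, read out by a cell viability assay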
Description: SANGER: Inhibition of human DJM-1 cell growth in a cell viability assay.

JVM-3 = assay type: functional, cell-based; conditions: Homo sapiens;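 further: growth inhibition of human JVM-3 cells, read out with a cell viability assay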
Description: SANGER: Inhibition of human JVM-3 cell growth in a cell viability assay.

SK-MEL-1 = assay type: functional, cell-based; conditions: Homo sapiens;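 further: growth inhibition of human SK-MEL-1 cells, read out by a cell viability assay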
Description: SANGER: Inhibition of human SK-MEL-1 cell growth in a cell viability assay.

NCI-H1155 = assay type: functional, cell-based; conditions: Homo sapiens;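 further: cell growth inhibition measured by a viability assay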
Description: SANGER: Inhibition of human NCI-H1155 cell growth in a cell viability assay.

SF-295 = assay type: functional, cell-based, Homo sapiens; conditions: Homo sapiens, SF-295; read-out: IC50;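 further: growth inhibition of SF-295 cells, read out with a cell viability assay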
Description: SANGER: Inhibition of human SF295 cell growth in a cell viability assay.

MDA-MB-453 = assay type: functional, cell-based, Homo sapiens; conditions: Homo sapiens, MDA-MB-453
Description: SANGER: Inhibition of human MDA-MB-453 cell growth in a cell viability assay.

DK-MG = assay type: functional, cell-based, Homo sapiens; conditions: Homo sapiens, DK-MG;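 further: growth inhibition of DK-MG cells, read out with a cell viability assay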
Description: SANGER: Inhibition of human DK-MG cell growth in a cell viability assay.

GB-1 = assay type: functional, cell-based, Homo sapiens; conditions: Homo sapiens, GB-1;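 further: growth of GB-1 cells judged by a viability assay, IC50 marks the concentration inhibiting growth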
Description: SANGER: Inhibition of human GB-1 cell growth in a cell viability assay.

KGN = assay type: functional, cell-based, Homo sapiens; conditions: Homo sapiens, KGN;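 further: growth inhibition of KGN cells, read out with a cell viability assay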
Description: SANGER: Inhibition of human KGN cell growth in a cell viability assay.

OAW-42 = assay type: functional, cell-based, Homo sapiens; conditions: Homo sapiens, OAW-42;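 further: growth inhibition of OAW-42 cells, read out with a cell viability assay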
Description: SANGER: Inhibition of human OAW-42 cell growth in a cell viability assay.

CAL-62 = assay type: functional, cell-based, Homo sapiens; conditions: Homo sapiens, CAL-62;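 further: growth inhibition of CAL-62 cells, read out with a cell viability assay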
Description: SANGER: Inhibition of human CAL-62 cell growth in a cell viability assay.

SW1417 = assay type: functional, cell-based, Homo sapiens; conditions: Homo sapiens, SW1417;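 further: growth inhibition of human SW1417 cells, read out with a cell viability assay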
Description: SANGER: Inhibition of human SW1417 cell growth in a cell viability assay.

D-247MG = assay type: functional, cell-based, Homo sapiens; conditions: Homo sapiens, D-247MG
Description: SANGER: Inhibition of human D-247MG cell growth in a cell viability assay.

NCI-H2087 = assay type: functional, cell-based, Homo sapiens; conditions: Homo sapiens, NCI-H2087;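 further: growth inhibition determined with a cell viability readout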
Description: SANGER: Inhibition of human NCI-H2087 cell growth in a cell viability assay.

L-363 = assay type: functional, cell-based; conditions: Homo sapiens
Description: SANGER: Inhibition of human L-363 cell growth in a cell viability assay.

Becker = assay type: functional, cell-based, Homo sapiens; conditions: Homo sapiens, Becker;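 further: growth inhibition of Becker cells, read out with a cell viability assay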
Description: SANGER: Inhibition of human Becker cell growth in a cell viability assay.

SCH = assay type: functional, cell-based, Homo sapiens; conditions: Homo sapiens, SCH;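 further: growth inhibition of human SCH cells, read out in a cell viability assay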
Description: SANGER: Inhibition of human SCH cell growth in a cell viability assay.

YAPC = assay type: functional, cell-based, Homo sapiens; conditions: Homo sapiens, YAPC;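 further: growth inhibition of YAPC cells, measured with a cell viability assay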
Description: SANGER: Inhibition of human YAPC cell growth in a cell viability assay.

TE-10 = assay type: functional, cell-based, Homo sapiens; conditions: Homo sapiens, TE-10;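 further: growth inhibition of TE-10 cells, measured by a cell viability assay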
Description: SANGER: Inhibition of human TE-10 cell growth in a cell viability assay.

HOS = assay type: functional, cell-based, Homo sapiens; conditions: Homo sapiens, HOS;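 further: growth inhibition of human HOS cells, read out with a cell viability assay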
Description: SANGER: Inhibition of human HOS cell growth in a cell viability assay.

RS4-11 = assay type: functional, cell-based; conditions: Homo sapiens;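 further: growth inhibition of RS4-11 cells, read out by a cell viability assay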
Description: SANGER: Inhibition of human RS4-11 cell growth in a cell viability assay.

LOX IMVI = assay type: functional, cell-based; conditions: Homo sapiens
Description: SANGER: Inhibition of human LOXIMVI cell growth in a cell viability assay.

NCI-H526 = assay type: functional, cell-based; conditions: Homo sapiens;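 further: growth inhibition of the human NCI-H526 cell line, measured by a cell viability assay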
Description: SANGER: Inhibition of human NCI-H526 cell growth in a cell viability assay.

LCLC-97TM1 = assay type: functional, cell-based, Homo sapiens; conditions: Homo sapiens, LCLC-97TM1;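 further: cell viability assay measuring growth inhibition of human LCLC-97TM1 cells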
Description: SANGER: Inhibition of human LCLC-97TM1 cell growth in a cell viability assay.

A-431 = assay type: functional, cell-based, Homo sapiens; conditions: Homo sapiens, A-431;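 further: growth inhibition of A-431 cells, determined with a cell viability read-out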
Description: SANGER: Inhibition of human A431 cell growth in a cell viability assay.

KM-H2 = assay type: functional, cell-based; conditions: Homo sapiens;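 further: growth inhibition of KM-H2 cells, read out by a cell viability assay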
Description: SANGER: Inhibition of human KM-H2 cell growth in a cell viability assay.

GAK = assay type: functional, cell-based, Homo sapiens; conditions: Homo sapiens, GAK;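 further: cell growth inhibition read out by a cell viability assay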
Description: SANGER: Inhibition of human GAK cell growth in a cell viability assay.

BV-173 = assay type: functional, cell-based; conditions: Homo sapiens
Description: SANGER: Inhibition of human BV-173 cell growth in a cell viability assay.

HuP-T4 = assay type: functional, cell-based, Homo sapiens; conditions: Homo sapiens, HuP-T4;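 further: cell viability assay measuring how much HuP-T4 cell growth is inhibited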
Description: SANGER: Inhibition of human HuP-T4 cell growth in a cell viability assay.

CAL-72 = assay type: functional, cell-based, Homo sapiens; conditions: Homo sapiens, CAL-72;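 further: cell viability assay measuring inhibition of proliferation in the CAL-72 cell line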
Description: SANGER: Inhibition of human CAL-72 cell growth in a cell viability assay.

MFM-223 = assay type: functional, cell-based, Homo sapiens; conditions: Homo sapiens, MFM-223
Description: SANGER: Inhibition of human MFM-223 cell growth in a cell viability assay.

KARPAS-299 = assay type: functional, cell-based; conditions: Homo sapiens
Description: SANGER: Inhibition of human KARPAS-299 cell growth in a cell viability assay.

NCI-H209 = assay type: functional, cell-based; conditions: Homo sapiens;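 further: growth inhibition of human NCI-H209 cells, measured by a cell viability assay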
Description: SANGER: Inhibition of human NCI-H209 cell growth in a cell viability assay.

ML-2 = assay type: functional, cell-based; conditions: Homo sapiens;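 further: growth inhibition of ML-2 cells, measured with a cell viability readout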
Description: SANGER: Inhibition of human ML-2 cell growth in a cell viability assay.

GAMG = assay type: functional, cell-based, Homo sapiens; conditions: Homo sapiens, GAMG;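 further: cell growth inhibition measured by a viability assay in the GAMG human cell line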
Description: SANGER: Inhibition of human GAMG cell growth in a cell viability assay.

In the case of `COc1ccc(C2=N[C@@H](c3ccc(Cl)cc3)[C@@H](c3ccc(Cl)cc3)N2C(=O)N2CCNC(=O)C2)c(OC(C)C)c1` [NUTLIN-3], the pIC50 (NB12) was < 5.10, the pIC50 (NCI-H1648) was < 5.10 and the pIC50 (KYSE-410) was < 5.10. For the same compound, the pIC50 (SH-4) was < 5.10, the pIC50 (ACN) was < 5.10 and the pIC50 (A2780) was < 5.10. For the same compound, the pIC50 (HCE-4) was < 5.10, the pIC50 (ChaGo-K-1) was < 5.10 and the pIC50 (MV4-11) was 6.21. The pIC50 (GCT) was < 5.10, the pIC50 (DBTRG-05MG) was < 5.10 and the pIC50 (J82) was < 5.10. The pIC50 (LB2241-RCC) was 5.44, the pIC50 (NCI-H1770) was < 5.10 and the pIC50 (MMAC-SF) was < 5.10. The pIC50 (P30-OHK) was < 5.10, the pIC50 (DJM-1) was < 5.10 and the pIC50 (JVM-3) was 5.59. The pIC50 (SK-MEL-1) was < 5.10, the pIC50 (NCI-H1155) was < 5.10 and the pIC50 (SF-295) was < 5.10. For the same compound, the pIC50 (MDA-MB-453) was < 5.10, the pIC50 (DK-MG) was 5.58 and the pIC50 (GB-1) was < 5.10. The pIC50 (KGN) was 5.51, the pIC50 (OAW-42) was < 5.10 and the pIC50 (CAL-62) was < 5.10. The pIC50 (SW1417) was < 5.10, the pIC50 (D-247MG) was 5.32 and the pIC50 (NCI-H2087) was < 5.10. The pIC50 (L-363) was < 5.10, the pIC50 (Becker) was < 5.10 and the pIC50 (SCH) was < 5.10. The pIC50 (YAPC) was < 5.10, the pIC50 (TE-10) was < 5.10 and the pIC50 (HOS) was < 5.10. For the same compound, the pIC50 (RS4-11) was 5.56, the pIC50 (LOX IMVI) was 5.41 and the pIC50 (NCI-H526) was < 5.10. For the same compound, the pIC50 (LCLC-97TM1) was < 5.10, the pIC50 (A-431) was < 5.10 and the pIC50 (KM-H2) was 5.10. For the same compound, the pIC50 (GAK) was < 5.10, the pIC50 (BV-173) was 5.55 and the pIC50 (HuP-T4) was < 5.10. For the same compound, the pIC50 (CAL-72) was < 5.10, the pIC50 (MFM-223) was < 5.10 and the pIC50 (KARPAS-299) was < 5.10. For the same compound, the pIC50 (NCI-H209) was < 5.10, the pIC50 (ML-2) was 5.59 and the pIC50 (GAMG) was < 5.10.
With `O=C1N=C(NCc2cccs2)S/C1=C\c1ccc2ncccc2c1` the pIC50 (NB12) was < 5.30, the pIC50 (NCI-H1648) was < 5.30 and the pIC50 (KYSE-410) was < 5.30. For the same compound, the pIC50 (SH-4) was < 5.30, the pIC50 (ACN) was < 5.30 and the pIC50 (A2780) was < 5.30. For the same compound, the pIC50 (HCE-4) was < 5.30, the pIC50 (ChaGo-K-1) was < 5.30 and the pIC50 (MV4-11) was < 5.30. The pIC50 (GCT) was < 5.30, the pIC50 (DBTRG-05MG) was < 5.30 and the pIC50 (J82) was < 5.30. For the same compound, the pIC50 (LB2241-RCC) was < 5.30, the pIC50 (NCI-H1770) was < 5.30 and the pIC50 (MMAC-SF) was < 5.30. The pIC50 (P30-OHK) was < 5.30, the pIC50 (DJM-1) was < 5.30 and the pIC50 (JVM-3) was < 5.30. For the same compound, the pIC50 (SK-MEL-1) was < 5.30, the pIC50 (NCI-H1155) was < 5.30 and the pIC50 (SF-295) was < 5.30. For the same compound, the pIC50 (MDA-MB-453) was < 5.30, the pIC50 (DK-MG) was < 5.30 and the pIC50 (GB-1) was < 5.30. For the same compound, the pIC50 (KGN) was < 5.30, the pIC50 (OAW-42) was < 5.30 and the pIC50 (CAL-62) was < 5.30. The pIC50 (SW1417) was < 5.30, the pIC50 (D-247MG) was < 5.30 and the pIC50 (NCI-H2087) was < 5.30. For the same compound, the pIC50 (L-363) was < 5.30, the pIC50 (Becker) was < 5.30 and the pIC50 (SCH) was < 5.30. The pIC50 (YAPC) was < 5.30, the pIC50 (TE-10) was < 5.30 and the pIC50 (HOS) was < 5.30. For the same compound, the pIC50 (RS4-11) was < 5.30, the pIC50 (LOX IMVI) was < 5.30 and the pIC50 (NCI-H526) was < 5.30. The pIC50 (LCLC-97TM1) was < 5.30, the pIC50 (A-431) was < 5.30 and the pIC50 (KM-H2) was < 5.30. For the same compound, the pIC50 (GAK) was < 5.30, the pIC50 (BV-173) was < 5.30 and the pIC50 (HuP-T4) was < 5.30. The pIC50 (CAL-72) was < 5.30, the pIC50 (MFM-223) was < 5.30 and the pIC50 (KARPAS-299) was < 5.30. For the same compound, the pIC50 (NCI-H209) was < 5.30, the pIC50 (ML-2) was < 5.30 and the pIC50 (GAMG) was < 5.30.
`COc1cc(F)c(F)c(Nc2ccc(I)cc2F)c1NS(=O)(=O)C1(CC(O)CO)CC1` (configuration not stated) was tested, and the pIC50 (NB12) was < 5.30, the pIC50 (NCI-H1648) was < 5.30 and the pIC50 (KYSE-410) was 5.48. The pIC50 (SH-4) was 7.07, the pIC50 (ACN) was 7.19 and the pIC50 (A2780) was < 5.30. The pIC50 (HCE-4) was < 5.30, the pIC50 (ChaGo-K-1) was < 5.30 and the pIC50 (MV4-11) was 6.09. For the same compound, the pIC50 (GCT) was < 5.30, the pIC50 (DBTRG-05MG) was < 5.30 and the pIC50 (J82) was < 5.30. For the same compound, the pIC50 (LB2241-RCC) was 5.48, the pIC50 (NCI-H1770) was < 5.30 and the pIC50 (P30-OHK) was < 5.30. For the same compound, the pIC50 (DJM-1) was < 5.30, the pIC50 (JVM-3) was 5.36 and the pIC50 (SK-MEL-1) was < 5.30. The pIC50 (NCI-H1155) was < 5.30, the pIC50 (SF-295) was < 5.30 and the pIC50 (MDA-MB-453) was < 5.30. For the same compound, the pIC50 (DK-MG) was 5.55, the pIC50 (GB-1) was 5.44 and the pIC50 (KGN) was 5.55. The pIC50 (OAW-42) was < 5.30, the pIC50 (CAL-62) was 6.17 and the pIC50 (SW1417) was < 5.30. The pIC50 (D-247MG) was < 5.30, the pIC50 (NCI-H2087) was 5.62 and the pIC50 (L-363) was < 5.30. For the same compound, the pIC50 (Becker) was < 5.30, the pIC50 (SCH) was < 5.30 and the pIC50 (YAPC) was < 5.30. The pIC50 (TE-10) was < 5.30, the pIC50 (HOS) was < 5.30 and the pIC50 (RS4-11) was < 5.30. For the same compound, the pIC50 (LOX IMVI) was 6.32, the pIC50 (NCI-H526) was < 5.30 and the pIC50 (LCLC-97TM1) was 6.55. For the same compound, the pIC50 (A-431) was 5.53, the pIC50 (KM-H2) was < 5.30 and the pIC50 (GAK) was 6.25. For the same compound, the pIC50 (BV-173) was 5.62, the pIC50 (HuP-T4) was 6.29 and the pIC50 (CAL-72) was < 5.30. For the same compound, the pIC50 (MFM-223) was < 5.30, the pIC50 (KARPAS-299) was < 5.30 and the pIC50 (NCI-H209) was < 5.30. For the same compound, the pIC50 (ML-2) was 6.30 and the pIC50 (GAMG) was < 5.30.
